From patent US9359409B2, “Antimicrobial peptides, compositions comprising the same and uses thereof” (priority 2012, dated 2016)
Read-outs that look alike come from different tables or passages of the source. Ends that are not written are not given here.

Tests used:
[1] = system: Escherichia coli
Method: (§1) The 5 designed and synthesized peptides of the invention, plus omiganan (peptide of the state of the art) were evaluated for their antimicrobial capacity in microdilution assays for determining the minimum inhibitory concentration (MIC). A first panel of 8 representative strains was analyzed in these assays, encompassing Gram positive and Gram negative bacteria. […] The lowest MIC values indicate a higher antimicrobial potency.
(§2) Subsequently, an analysis of a panel of clinical isolates including strains with different resistance mechanisms against conventional antibiotics was carried out, all of which are of clinical relevance. […] In Table 3 the results for a panel of Gram negative bacteria are shown, and in Table 4 for a panel of […] bacteria. In these tables the detected gene/s responsible for the resistance against antibiotics for each strain, are included.
(§3) Antimicrobial activity was analyzed by means of the determination of the MIC (minimum inhibitory concentration) by the microdilution technique. The technique was carried out in the standard fashion according to (CLSI M07-A9 Vol. 32 No 2. January 2012). The peptide concentration range used was from 0.5 μg/mL to 512 μg/mL in two-fold serial dilutions. The used medium was MH Difco broth supplemented with cations, at a final concentration of Ca^++20-25 mg/L and Mg^++10-12.5 mg/L. The working inoculum used corresponds to a 1/100 dilution of a bacterial suspension equivalent to 0.5 in the Mc Farland scale.

[2] = system: Klebsiella pneumoniae
Method: as §1, §2, §3

[3] = system: Pseudomonas aeruginosa; test: MIC by broth microdilution; assay type: cell-based
Method: as §1, §2, §3

[4] = system: Staphylococcus aureus; test: MIC by broth microdilution; assay type: cell-based
Method: as §1, §2, §3

[5] = system: A. baumanii
Method: as §2, §3

[6] = system: E. faecalis
Method: as §2, §3

[7] = system: E. raffinosus; settings: E. raffinosus M6187, resistance gene vanA
Method: as §2, §3

[8] = system: S. haemolyticus
Method: as §2, §3

[9] = system: S. hominis
Method: as §2, §3

[10] = system: S. saprophyticus
Method: as §2, §3

[11] = system: E. coli; assay type: cell-based; settings: non-amidated peptides; E. coli ATCC 25922, WT
Method: (§4) In vitro sensitivity assay of aerobically growing bacteria, using the disc diffusion method was performed according to the standards in the M2 document of the CLSI (Clinical and Laboratory Standards Institute: Performance Standards for Antimicrobial Disk Susceptibility Tests.) using the non-amidated peptides
(§5) In brief, intermediate solutions (10×) of the antimicrobial non-amidated peptides were prepared by serial dilutions 1:2, 1:4 and 1:8 by two-fold dilutions. Then, one part of the solution of the antimicrobial peptide 10× was added to nine parts of melted bacteriological agar. The antibiotic solution was added for each dilution, in the melted agar and cooled to 45-50° C. in a water bath. Then, the agar-antibiotic mixture was placed in a Petri dish until a 3-4 mm depth was reached. The inoculum is prepared with a turbidity of 0.5 in the McFarland scale (approximately 1-2 10^8 CFU/ml). The final inoculum required for the agar dilution test is 10^4 colony forming units (CFU) per “spot” having 5-8 mm in diameter. The inoculated plates must be incubated upside down at 35° C. for a period of 16-20 hs. MIC was recorded as the value of the lower dilution completely inhibiting bacterial development, without considering the development of a single colony or a slight film caused by the inoculum deposit. The final point in these cases will correspond to the concentration at which there is more than 80% reduction in growth as compared with the control.

[12] = system: K. pneumoniae; assay type: cell-based; settings: non-amidated peptides; K. pneumoniae M13540, KPC
Method: as §4, §5

[13] = system: P. aeruginosa; assay type: cell-based
Method: as §4, §5

[14] = system: S. aureus; assay type: cell-based; settings: non-amidated peptides
Method: as §4, §5

[15] = system: S. cohnii; assay type: cell-based
Method: as §4, §5

[16] = system: S. warnerii; assay type: cell-based
Method: as §4, §5

[17] = system: human erythrocytes; test: Erythrocyte hemolysis assay (cytotoxicity); assay type: cell-based; settings: peptide 128 ug/ml
Method: Subsequently, the capacity of the peptides of the invention for lysing human erythrocytes was evaluated, as a measure of their cytotoxicity (Table 2). The assays were carried out according to the Examples and are expressed as a percentage of total lysis obtained with either water or the surfactant Tween 20. In this assays, the lower hemolysis percentage, the lower expected cytotoxic activity.
Evaluation of cytotoxic activity was performed by means of an erythrocyte hemolysis assay (according to Pure Appl. Chem., Vol. 79, No. 4, pp. 717-728, 2007). In brief, from a volume of heparinized human whole blood, 3 times that volume of PBS is added and centrifuged 10 minutes at 1500 rpm, repeating the washing two more times. 10% blood solutions in PBS were prepared with that pellet. Subsequently, each group was added the corresponding peptide at the indicated concentration and incubated at 37° C. for 30 minutes. […]

ILRWPWWPWRRK-NH2 [Omiganan, ILRWPWWPWRRK, reference compound]
MIC ([1]; E. coli ABC11, resistance gene ctx-m-2): 64 µg/mL
MIC ([1]; E. coli Cos15, resistance gene per + tem): 64 µg/mL
MIC ([1]; E. coli LCA1, resistance gene ctx-m-2 + tem-1): 64 µg/mL
MIC ([1]; E. coli M5306, resistance gene ctx-m-2 + tem-1 + per-2): 64 µg/mL
MIC ([1]; E. coli M7859, resistance gene cit): 64 µg/mL
MIC ([1]; E. coli M9209, resistance gene kpc): 64 µg/mL
MIC ([1]; E. coli NEU23, resistance gene oxa-GIII + tem): 32 µg/mL
MIC ([2]; K. Pneumoniae M9885, resistance gene kpc): 256 µg/mL
MIC ([2]; K. pneumoniae M9170, resistance gene oxa-GIII): 128 µg/mL
MIC ([2]; K. pneumoniae M9491, resistance gene mox): 128 µg/mL
MIC ([2]; K. pneumoniae M13540, resistance gene kpc): 256 µg/mL
MIC ([3]; P. aeruginosa M5109, resistance gene vim): 256 µg/mL
MIC ([3]; P. aeruginosa M7723, resistance gene kpc): 256 µg/mL
MIC ([3]; P. aeruginosa M7907, resistance gene per): 128 µg/mL
MIC ([3]; P. aeruginosa M13513, resistance gene kpc): 256 µg/mL
MIC ([4]; S. aureus 28, resistance gene ermA): 32 µg/mL
MIC ([4]; S. aureus 33, resistance gene msrA): 32 µg/mL
MIC ([4]; S. aureus 204, resistance gene ermA): 64 µg/mL
MIC ([4]; S. aureus 239, resistance gene ermC): 32 µg/mL
MIC ([4]; S. aureus M2832, resistance gene mecA): 64 µg/mL
MIC ([4]; S. aureus M4046, resistance gene mecA): 32 µg/mL
MIC ([4]; S. aureus M6276, resistance gene ermA + lnuA): 32 µg/mL
MIC ([4]; S. aureus M6784, resistance gene mecA): 32 µg/mL
MIC ([4]; S. aureus M6820, resistance gene mecA): 128 µg/mL
MIC ([5]; A. baumanii FAV-1, resistance gene per + oxa-51 + oxa-58): 64 µg/mL
MIC ([5]; A. baumanii M5179, resistance gene oxa-51): 64 µg/mL
MIC ([5]; A. baumanii M5277, resistance gene per): 32 µg/mL
MIC ([5]; A. baumanii M5282, resistance gene oxa-51): 16 µg/mL
MIC ([5]; A. baumanii M7489, resistance gene oxa-51 + tem): 32 µg/mL
MIC ([5]; A. baumanii M7978, resistance gene imp): 64 µg/mL
MIC ([5]; A. baumanii M9665, resistance gene oxa-51): 64 µg/mL
MIC ([5]; A. baumanii M13523, resistance gene oxa-51): 64 µg/mL
MIC [6]: 128 µg/mL
MIC ([6]; E. faecalis ATCC 51299, resistance gene vanB): 256 µg/mL
MIC ([6]; E. faecalis M4449, resistance gene vanA): 128 µg/mL
MIC ([6]; E. faecalis M4899, resistance gene vanB): 256 µg/mL
MIC ([6]; E. faecalis M4992, resistance gene vanA): 128 µg/mL
MIC ([6]; E. faecalis M6383, resistance gene vanA): 128 µg/mL
MIC ([6]; E. faecalis M6534, resistance gene vanB): 256 µg/mL
MIC ([6]; E. faecalis M6983, resistance gene vanA): 128 µg/mL
MIC [7]: 4 µg/mL
MIC [8]: 4 µg/mL
MIC [9]: 4 µg/mL
MIC [10]: 8 µg/mL
MIC in agar dilution [11]: >128 µg/mL
MIC in agar dilution [12]: >128 µg/mL
MIC in agar dilution [13]: >128 µg/mL
MIC in agar dilution ([13]; non-amidated peptides, P. aeruginosa M13513, KPC): >128 µg/mL
MIC in agar dilution ([14]; S. aureus ATCC29213, MSSA): >128 µg/mL
MIC in agar dilution ([14]; S. aureus M6794, MRSA): >128 µg/mL
MIC in agar dilution [15]: 16 µg/mL
MIC in agar dilution [16]: 16 µg/mL
Hemolysis % (1% Tween20) ([17]; percentage of total lysis obtained with 1% Tween20): 11.6%
Hemolysis % (water) ([17]; percentage of total lysis obtained with water): 10%
OD 540 nm ([17]; supernatant of human erythrocytes, 37° C., 30 minutes): 0.171
